For one assay, the target named is T1, hM2 muscarinic receptor (Homo sapiens, UniProt P08172).
T1 construct: gene CHRM2; full-length receptor stably expressed in CHO cells; human G16 transiently co-transfected for calcium assay
T1 sequence (P08172 1-466): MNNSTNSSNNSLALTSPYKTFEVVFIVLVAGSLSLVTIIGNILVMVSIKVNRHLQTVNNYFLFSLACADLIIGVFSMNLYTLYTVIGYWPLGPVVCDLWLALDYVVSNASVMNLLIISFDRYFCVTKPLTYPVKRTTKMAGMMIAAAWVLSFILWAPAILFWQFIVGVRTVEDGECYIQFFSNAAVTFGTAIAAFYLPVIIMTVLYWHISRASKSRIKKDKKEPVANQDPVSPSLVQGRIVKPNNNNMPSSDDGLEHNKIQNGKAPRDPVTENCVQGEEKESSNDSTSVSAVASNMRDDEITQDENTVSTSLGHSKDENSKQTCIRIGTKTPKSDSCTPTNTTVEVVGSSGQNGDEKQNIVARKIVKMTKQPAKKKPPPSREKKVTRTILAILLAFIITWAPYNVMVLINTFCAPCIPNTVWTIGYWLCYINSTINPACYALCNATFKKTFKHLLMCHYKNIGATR
As to the kind of experiment: Fura-2 intracellular calcium microfluorometry, CHO cells. In kind it is cell-based. The following applies: read-out: oxotremorine / pEC50 (converted). An excerpt: Fura-2 intracellular calcium microfluorometry, CHO cells on hM2 muscarinic receptor
Background: Calcium assays in cells follow changes in intracellular calcium, usually with a dye or a luminescent sensor.

In a further assay the target is T2, hM5 muscarinic receptor (Homo sapiens, UniProt P08912).
T2 construct: gene CHRM5; full-length receptor stably expressed in CHO cells (Missouri S&T cDNA Resource Center)
T2 sequence (P08912 1-532): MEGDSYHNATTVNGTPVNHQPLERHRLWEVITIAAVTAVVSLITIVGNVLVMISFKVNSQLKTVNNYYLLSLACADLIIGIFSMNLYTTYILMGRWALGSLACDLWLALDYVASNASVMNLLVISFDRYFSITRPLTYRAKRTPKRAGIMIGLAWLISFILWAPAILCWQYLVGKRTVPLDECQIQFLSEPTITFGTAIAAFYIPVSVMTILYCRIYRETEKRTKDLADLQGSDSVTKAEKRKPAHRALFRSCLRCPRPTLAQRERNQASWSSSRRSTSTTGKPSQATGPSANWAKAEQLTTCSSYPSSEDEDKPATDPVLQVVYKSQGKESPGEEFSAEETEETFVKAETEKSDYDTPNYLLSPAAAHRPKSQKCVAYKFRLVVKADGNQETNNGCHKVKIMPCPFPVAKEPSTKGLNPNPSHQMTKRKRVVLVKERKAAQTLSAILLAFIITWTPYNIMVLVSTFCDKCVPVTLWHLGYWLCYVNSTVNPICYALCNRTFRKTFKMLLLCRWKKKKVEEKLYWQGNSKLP
Described as above. In kind it is cell-based. The following applies: read-out: oxotremorine / pEC50 (converted). The text has this: Fura-2 intracellular calcium microfluorometry, CHO cells on hM5 muscarinic receptor

The target in another assay is T3, hM1 muscarinic receptor (Homo sapiens, UniProt P11229).
T3 construct: gene CHRM1
T3 sequence (P11229 1-460): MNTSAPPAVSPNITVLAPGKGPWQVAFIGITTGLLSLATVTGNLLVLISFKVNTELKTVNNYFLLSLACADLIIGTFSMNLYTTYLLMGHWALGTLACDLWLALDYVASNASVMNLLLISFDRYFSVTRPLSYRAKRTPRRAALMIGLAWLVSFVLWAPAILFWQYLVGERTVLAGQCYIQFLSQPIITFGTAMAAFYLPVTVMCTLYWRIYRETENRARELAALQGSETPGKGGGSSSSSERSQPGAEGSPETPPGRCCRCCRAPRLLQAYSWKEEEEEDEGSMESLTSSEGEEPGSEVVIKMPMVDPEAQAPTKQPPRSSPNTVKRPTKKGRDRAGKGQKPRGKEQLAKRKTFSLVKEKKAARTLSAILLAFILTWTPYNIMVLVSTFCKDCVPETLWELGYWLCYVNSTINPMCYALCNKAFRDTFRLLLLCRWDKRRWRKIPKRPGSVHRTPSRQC
The experiment in a line: cell-based. An excerpt: Fura-2 intracellular calcium microfluorometry, CHO cells on hM1 muscarinic receptor

The target in the next assay is T4, hM3 muscarinic receptor (Homo sapiens, UniProt P20309).
T4 construct: gene CHRM3; full-length receptor stably expressed in CHO cells (Missouri S&T cDNA Resource Center)
T4 sequence (P20309 whole entry): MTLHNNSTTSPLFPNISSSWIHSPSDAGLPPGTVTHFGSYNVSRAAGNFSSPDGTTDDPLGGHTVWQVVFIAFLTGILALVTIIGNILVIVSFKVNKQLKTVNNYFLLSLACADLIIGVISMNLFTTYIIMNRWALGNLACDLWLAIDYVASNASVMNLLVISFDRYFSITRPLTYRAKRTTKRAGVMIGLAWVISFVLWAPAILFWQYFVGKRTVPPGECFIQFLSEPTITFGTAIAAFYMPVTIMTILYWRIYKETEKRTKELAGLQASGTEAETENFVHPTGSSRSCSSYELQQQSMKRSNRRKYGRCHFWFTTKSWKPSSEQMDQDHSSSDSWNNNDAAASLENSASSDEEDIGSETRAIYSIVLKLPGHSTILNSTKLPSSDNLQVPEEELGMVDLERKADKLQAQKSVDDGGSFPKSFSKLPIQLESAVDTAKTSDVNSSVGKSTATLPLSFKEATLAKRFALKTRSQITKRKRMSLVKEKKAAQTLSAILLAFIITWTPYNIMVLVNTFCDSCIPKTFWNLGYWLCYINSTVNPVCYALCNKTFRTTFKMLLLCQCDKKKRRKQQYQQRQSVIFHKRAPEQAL
As to the kind of experiment: Fura-2 intracellular calcium microfluorometry, CHO cells. In kind it is cell-based. The following applies: read-out: oxotremorine / pEC50 (converted). The text has this:
Fura-2 intracellular calcium microfluorometry, CHO cells on hM3 muscarinic receptor

The target of a further assay is T5, hM4 muscarinic receptor (Homo sapiens, UniProt P08173).
T5 construct: gene CHRM4
T5 sequence (P08173 1-479): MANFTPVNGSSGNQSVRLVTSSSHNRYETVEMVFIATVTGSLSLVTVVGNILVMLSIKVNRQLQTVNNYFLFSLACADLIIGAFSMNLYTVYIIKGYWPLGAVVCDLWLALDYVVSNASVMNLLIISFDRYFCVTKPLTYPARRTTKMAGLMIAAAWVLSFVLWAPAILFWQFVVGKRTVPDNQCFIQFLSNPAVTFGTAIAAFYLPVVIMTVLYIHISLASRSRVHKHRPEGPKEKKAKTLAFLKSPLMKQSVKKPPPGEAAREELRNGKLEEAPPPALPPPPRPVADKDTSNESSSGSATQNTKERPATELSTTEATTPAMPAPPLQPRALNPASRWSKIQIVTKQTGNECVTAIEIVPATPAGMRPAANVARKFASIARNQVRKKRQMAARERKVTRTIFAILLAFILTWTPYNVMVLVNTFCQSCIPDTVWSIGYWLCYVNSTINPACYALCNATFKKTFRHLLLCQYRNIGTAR
The experiment in a line: cell-based.

As for `O=C1CCCN1CC#CCN1CCCC1` [oxotremorine], the EC50 at hM2 muscarinic receptor was 64.6 nM; at hM5 muscarinic receptor, 51.3 nM; at hM1 muscarinic receptor, 46.8 nM; on hM3 muscarinic receptor, 46.8 nM; on hM4 muscarinic receptor, 67.6 nM.
